Read-outs that look alike come from different tables or passages of the source.
How the values were obtained:
[1] = system: adjuvant arthritis (rear paw volume increase); test: Anti-inflammatory activity, adjuvant arthritis (preventive treatment); type: in vivo; conditions: Rattus norvegicus; male rats, oral, day 0 to day 17, Freund type adjuvant; read-out: DA50 (dose that diminished by 50% the volume increase of the rear paws)
Description: A. Anti-inflammatory Activity-adjuvant arthritis (preventive treatment)
The injection of Freund type adjuvant into the rear paw of a rat provokes the rapid appearance of a primary inflammatory lesion in that paw and then after a latent period of 13 to 15 days, the appearance of a secondary arthritic condition occurs in the other rear paw The test was performed on male rats about 40 to 50 days old who received an intraplantary injection of 0.1 ml of Freund type adjuvant (suspension of 6 mg per ml of dead mycobacterium butyrium in vaseline oil). The rats received the test compound orally on day 0 (day of injection of adjuvant) until the day before they were killed (day 17). […] The activity of the test compounds was determined by the increase in the injected rear paw volume (primary and secondary inflammation) and the non-injected rear paw (secondary inflammation) as compared to the average volume of the corresponding paws of the arthritic control animals. The DA50 or the dose that diminished by 50% the volume increase of the rear paws of the treated animals as compared to the control animals was determined to be 8 mg/kg for the compound of Example 1.

cyclo-oxygenase = molecular target: T1, cyclo-oxygenase (Bos taurus, UniProt O62664); test: Inhibition of biosynthesis of prostaglandins in vitro (microsomal preparation of seminal vesicules); type: biochemical, bulls
T1 construct: a cyclo-oxygenase contained in a microsomal preparation of seminal vesicules of bulls; from tissue; host or cells: bull seminal vesicles, microsomal preparation
T1 sequence (O62664 25-600): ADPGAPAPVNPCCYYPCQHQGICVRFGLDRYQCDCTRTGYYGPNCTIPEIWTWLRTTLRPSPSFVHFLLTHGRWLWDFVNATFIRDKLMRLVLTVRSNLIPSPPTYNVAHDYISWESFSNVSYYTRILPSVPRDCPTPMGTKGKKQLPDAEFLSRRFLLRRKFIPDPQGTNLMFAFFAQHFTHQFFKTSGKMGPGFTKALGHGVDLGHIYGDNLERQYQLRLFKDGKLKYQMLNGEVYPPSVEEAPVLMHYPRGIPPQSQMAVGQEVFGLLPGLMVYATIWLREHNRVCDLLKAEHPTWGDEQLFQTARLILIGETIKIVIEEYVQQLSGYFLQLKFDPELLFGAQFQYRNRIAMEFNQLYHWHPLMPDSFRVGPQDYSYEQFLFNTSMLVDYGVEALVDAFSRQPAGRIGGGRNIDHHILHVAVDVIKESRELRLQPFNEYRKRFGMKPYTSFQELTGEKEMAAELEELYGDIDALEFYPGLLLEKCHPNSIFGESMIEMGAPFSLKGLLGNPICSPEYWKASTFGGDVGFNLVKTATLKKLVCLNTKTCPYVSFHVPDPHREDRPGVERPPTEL
Description: B. Inhibition of biosynthesis of prostaglandins in vitro
Arachidonic acid is converted into prostaglandins (PGs) of the […] by a cyclo-oxygenase contained in a microsomal preparation of seminal vesicules of bulls by the method of Tagekuchi et al [Biochemistry, Vol. 10 (1971), P. 2372]. The precursor at a concentration of 15×10^-6 M was incubated in the presence of a fixed concentration of proteins of the seminal vesicule preparation and the test product at 37° C. for 30 minutes. The reaction was stopped by immersion into boiling water for one minute and then centrifugation. The prostaglandins were determined by radio-immunoassay by the procedure of Dray et al [European J. Clin. Invest., Vol. 5 (1975), p. 311] to specifically evaluate for PGE2 and PGF2 α. The CI50 dose or dose that inhibited the activity by 50% was calculated for each of the two prostaglandins and was 2×10^-5 M for the compound of Example 1.

5-lipoxygenase = molecular target: T2, 5-lipoxygenase (Rattus norvegicus, UniProt P12527); test: Dosage of 5-lipoxygenase of rat neutrophiles (Leucotriene B4 by radioimmunoassay); type: cell-based; conditions: rat peritoneal neutrophiles, 10 μM ionophore A 23187, Leucotriene B4; read-out: CI50 5-lipoxygenase
T2 construct: Dosage of 5-lipoxygenase of rat neutrophiles; endogenous in cells; host or cells: rat peritoneal neutrophils elicited with sodium caseinate
T2 sequence (P12527 1-673): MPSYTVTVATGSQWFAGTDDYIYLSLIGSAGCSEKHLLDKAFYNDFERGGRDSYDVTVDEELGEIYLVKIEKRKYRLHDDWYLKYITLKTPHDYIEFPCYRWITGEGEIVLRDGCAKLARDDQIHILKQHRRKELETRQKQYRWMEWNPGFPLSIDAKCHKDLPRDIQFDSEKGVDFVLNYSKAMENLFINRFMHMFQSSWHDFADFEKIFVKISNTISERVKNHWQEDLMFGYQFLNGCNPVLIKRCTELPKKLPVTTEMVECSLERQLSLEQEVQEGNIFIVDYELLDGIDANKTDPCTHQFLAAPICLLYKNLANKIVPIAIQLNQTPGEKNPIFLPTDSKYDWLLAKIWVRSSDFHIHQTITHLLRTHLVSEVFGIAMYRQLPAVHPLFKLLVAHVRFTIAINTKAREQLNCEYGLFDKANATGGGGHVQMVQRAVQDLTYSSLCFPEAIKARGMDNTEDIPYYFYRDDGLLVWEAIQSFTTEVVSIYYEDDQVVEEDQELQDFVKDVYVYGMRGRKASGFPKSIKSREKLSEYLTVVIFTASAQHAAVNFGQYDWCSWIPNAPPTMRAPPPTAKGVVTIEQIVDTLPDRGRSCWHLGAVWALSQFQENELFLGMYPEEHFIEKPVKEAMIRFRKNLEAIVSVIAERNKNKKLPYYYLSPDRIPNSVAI
Description: 3. Dosage of 5-lipoxygenase of rat neutrophiles
Peritoneal neutrophile (5×10^6 cells/ml) obtained after intraperitoneal injection of 12% sodium caseinate were preincubated at 37° C. for 5 minutes in the presence of the test product or solvent used. The incubation was effected under the same conditions in the presence of 10 μM of ionophore A 23187 and […] of calcium chloride. After 5 minutes, the incubates were placed in ice and centrifuged at 3000 g.

| IC50 (cyclo-oxygenase; arachidonic acid 15×10^-6 M, 37° C., 30 minutes, PGE2 and PGF2 α by radio-immunoassay, read-out: CI50 (dose that inhibited the activity by 50%), for each of PGE2 and PGF2 α) | IC50 (5-lipoxygenase) | IC50 (cyclo-oxygenase; table value, read-out: CI50 cyclooxygenase) | Structure (SMILES) | ED50 [1] |
| --- | --- | --- | --- | --- |
| 20 µM | 10 µM | – | CC(C(=O)O)c1cc2c(s1)C1(CCCCC1)CC2 (stereo not drawn) [Example 1, 4',5'-dihydro-α'-methyl-spiro[cyclohexane-1,6']-6H-[cyclopenta (b)thiophene]-2'-acetic acid] | 8 mg/kg |
| – | 0.5 µM | 200 µM | CC(C(=O)N(C)O)c1cc2c(s1)C1(CCCCC1)CC2 (stereo not drawn) [Example 4, 4',5'-dihydro-α',N-dimethyl-N-hydroxy-spiro[cyclohexane-1,6']-6H-[cyclopenta (b)thiophene]-2-acetamide] | – |

Reference: patent US4719224A, “Anti-inflammatory and analgesig thiophene acetic acid derivatives, compositions, and method of use therefor” (Roussel Uclaf, priority 1985, dated 1988)
